Data as given in patent publication US7528252B2, “Derivatives of triazoly-imidazopyridine useful as ligands of the adenosine A2a receptor and their use as medicaments” (Sigma-Tau Industrie Farmaceutiche Riunite S.p.A., priority 2002, dated 2009).

Key:
[1] = tested on: mice; assay: Capacity to antagonise Haloperidol-induced catalepsy; type: in vivo; details: orally 10 mg/kg and 20 mg/kg; Haloperidol 4 mg/Kg endoperitoneal
Procedure: (§1) 10 CD1 male mice were used per group. For this test, a steel bar, 10 cm long, was placed at a height of 4.5 cm above the support surface. Onto this, were placed the front legs of the animals. The presence of catalepsy was determined by measuring the time (in seconds) the animal remained in the posture placed. Later, this parameter was placed relatively, on a scale of rising values (0 to 5) through which, the degree of catalepsy determined in both control animals and in these subjected to treatment with the substances under test could be proportionately expressed.
For this study, product ST 1535 was used. Catalepsy was induced in the animals through the endoperitoneal administration of Haloperidol at a dose of 4 mg/Kg, two hours prior measuring catalepsy in the animals, the presence of which was determined according to the method described previously.
After scoring for catalepsy by Haloperidol, the animals were treated orally, with a dose equal to 10 mg/kg and 20 mg/kg of the product ST 1535. Then 60 minutes after treatment, the animals were subjected to further catalepsy scoring, which was carried out at the following times after ST 1535 administration: 120′, 240′, 300′.

[2] = tested on: mice; assay: Forced swim test in mice; type: in vivo; details: 60 minutes before the test; 4 minutes of testing period
Procedure: Mice were dropped individually into glass cylinders (height: 25 cm, internal diameter 10 cm) containing 10 cm water, maintained at 23° C. The immobility time (sec) was measured during 4 minutes of test. A mouse was judged to be immobile when it remained floating in the water, making only the necessary movements to keep its head above water. Test compound ST 1535 was administered orally to mice, 60 minutes before the test.

[3] = tested on: CD1 mice; assay: Associated L-DOPA and A2a antagonists on Haloperidol-induced catalepsy; type: in vivo; details: ST 1535 1.25 or 2.5 mg/kg per os; L-DOPA 12.5 mg/kg; benserazide 3.12 mg/kg i.p.; Haloperidol 4 mg/kg i.p.
Procedure: For this study, product ST 1535 was used.
CD1 mice, divided into different experimental groups (n=10 per group) were used. All animals were subjected to treatment with Haloperidol (4 mg/kg, i.p.) two hours and 30′ prior to the catalepsy test, carried out according to the method described above.
Later, the animals were subjected to different types of treatment according to their original experimental group (see diagram). All catalepsy evaluations were carried out 2 hours and 30 minutes after Haloperidol treatment.
Haloperidol+ST 1535: ST 1535 2.5 mg/kg, per os, 75′ prior to testing;
Haloperidol+benserazide+L-Dopa: Benserazide 3.12 mg/kg i.p., 90′ prior to testing;
L-DOPA:. 12.5 mg/kg, 60′ prior to testing;
Aloperidol+benserazide+L-Dopa+ST 1535: Benserazide 3.12 mg/kg i.p., 90′ prior to testing;
L-DOPA 12.5 mg/kg, 60′ prior to testing;

[4] = biological target: T1, human A2a receptor (Homo sapiens, UniProt P29274); details: ratio of receptor affinity (selectivity)
T1 sequence (P29274 whole entry): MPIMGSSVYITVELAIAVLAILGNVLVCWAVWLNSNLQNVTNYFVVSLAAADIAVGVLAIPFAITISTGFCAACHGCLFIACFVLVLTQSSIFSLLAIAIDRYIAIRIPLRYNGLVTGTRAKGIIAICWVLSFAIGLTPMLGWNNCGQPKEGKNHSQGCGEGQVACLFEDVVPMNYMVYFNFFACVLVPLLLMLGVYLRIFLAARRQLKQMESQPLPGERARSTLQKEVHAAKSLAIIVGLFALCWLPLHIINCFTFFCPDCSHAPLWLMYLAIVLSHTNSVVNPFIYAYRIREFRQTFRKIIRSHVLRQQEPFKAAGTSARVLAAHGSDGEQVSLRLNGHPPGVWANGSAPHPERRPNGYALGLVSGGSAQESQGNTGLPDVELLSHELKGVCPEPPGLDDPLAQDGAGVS

[5] = biological target: T1, human A2a receptor; assay: biochemical
[6] = tested on: CD1 male mice; assay: Capacity of the products to induce catalepsy in mice; type: in vivo; details: endoperitoneal, 30 minutes prior to the test
Procedure: as §1
The reference products and these in this study were administered endoperitoneally, in a volume of 10 ml/kg, 30 minutes prior to the test.
Except for CGS 21680 (reference compound) which was dissolved in 0.9% NaCl, the products in the study and the control antagonist ZM 241385 were solubilised in DMSO and then diluted in Cremofor EL and 0.9% NaCl (final concentrations: DMSO 15%, Cremofor EL 15%, NaCl 0.9%).

## CCCCc1nc(N)c2nc(-n3nccn3)n(C)c2n1 [ST 1535, 2-butyl-9-methyl-8-(2H-1,2,3-triazol-2-yl)-9H-purine-6-ylamine]
[1]
  effect on Haloperidol induced catalepsy (FIG. 3): reduces the appearance of catalepsy in mice
[2]
  time of immobility, forced swim test (FIG. 5): reduces, in a dose-dependant manner, the time of immobility of the animal
[3]
  combination with sub threshold dose of L-DOPA plus benserazide on Haloperidol-induced catalepsy (FIG. 4): potentiates the anticataleptic activity of treatment with ineffective doses of L-DOPA and benserazide
[4]
  KiA1/KiA2a: 47
[5]
  Ki: 2.29 ± 0.58 nM
[6]
  appearance of catalepsy in mice (FIG. 1): none of them brought about the appearance of catalepsy in mice
